Test results taken from ChEMBL document CHEMBL1914348, “Discovery of pyrazoles as novel FPR1 antagonists” (Bioorg Med Chem Lett, 2011).
Blank lines part the entries; values can stand above or below the compound they belong to. Calls of active or inactive are those of the source. The calls are words filed in the database; no cut-off is given here.

Tests used:
[1] = biological target: T1, fMet-Leu-Phe receptor (Homo sapiens, UniProt P21462); assay: Antagonist activity at human FPR1 in human neutrophils assessed as inhibition of fMLF-stimulated intracellular calcium mobilisation by FLIPR assay; assay type: functional, cell-based
T1 sequence (P21462 whole entry): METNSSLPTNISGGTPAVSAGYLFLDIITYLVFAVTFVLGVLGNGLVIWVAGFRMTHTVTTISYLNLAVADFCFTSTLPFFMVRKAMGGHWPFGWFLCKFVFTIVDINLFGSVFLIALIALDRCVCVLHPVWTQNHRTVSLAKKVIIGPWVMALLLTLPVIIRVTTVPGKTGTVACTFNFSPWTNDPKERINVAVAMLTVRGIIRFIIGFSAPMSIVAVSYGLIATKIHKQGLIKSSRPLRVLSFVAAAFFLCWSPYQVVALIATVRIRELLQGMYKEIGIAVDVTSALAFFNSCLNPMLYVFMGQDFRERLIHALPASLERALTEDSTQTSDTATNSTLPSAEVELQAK

[2] = biological target: T1, fMet-Leu-Phe receptor; assay: Antagonist activity at FPR1 in whole blood assessed as CD11 level; assay type: functional, tissue-based; settings: read-out: pA2 (converted)
[3] = Lipophilicity, log D of the compound; assay type: physicochemical; settings: octanol/water
[4] = Solubility of the compound; assay type: physicochemical
[5] = Fraction unbound in human; assay type: ADME, organism-based; settings: in vivo
[6] = Fraction unbound in rat; assay type: ADME, organism-based; settings: in vivo
[7] = Intrinsic clearance in human microsomes; assay type: ADME, Microsome
[8] = Intrinsic clearance in Sprague-Dawley rat microsomes; assay type: ADME, Microsome
[9] = Intrinsic clearance in human hepatocytes assessed per 10 '6 cells; assay type: ADME, cell-based, Liver, Hepatocyte
[10] = Intrinsic clearance in Sprague-Dawley rat hepatocytes assessed per 10 '6 cells; assay type: ADME, cell-based, Liver, Hepatocyte
[11] = Chemical stability of the compound assessed as half life; assay type: physicochemical
[12] = biological target: T2, Cytochrome P450 1A2 (Homo sapiens, UniProt P05177); assay: Inhibition of CYP1A2; assay type: ADME
T2 sequence (P05177 whole entry): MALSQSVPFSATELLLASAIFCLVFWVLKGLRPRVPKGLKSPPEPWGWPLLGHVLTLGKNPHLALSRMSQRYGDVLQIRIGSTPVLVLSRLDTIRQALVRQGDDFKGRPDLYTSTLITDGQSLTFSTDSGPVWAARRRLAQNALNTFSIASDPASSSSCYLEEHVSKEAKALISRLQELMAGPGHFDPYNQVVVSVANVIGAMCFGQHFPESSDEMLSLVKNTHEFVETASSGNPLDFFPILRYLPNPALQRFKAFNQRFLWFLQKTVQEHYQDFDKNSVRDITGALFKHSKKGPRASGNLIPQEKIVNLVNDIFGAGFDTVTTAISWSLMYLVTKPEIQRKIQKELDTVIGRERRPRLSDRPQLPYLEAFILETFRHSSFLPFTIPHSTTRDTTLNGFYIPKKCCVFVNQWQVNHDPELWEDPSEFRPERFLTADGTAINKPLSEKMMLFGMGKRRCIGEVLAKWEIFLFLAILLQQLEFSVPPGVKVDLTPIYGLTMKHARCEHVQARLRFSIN

[13] = biological target: Cytochrome P450 2C9 (Homo sapiens, UniProt P11712); assay: Inhibition of CYP2C9; assay type: ADME
[14] = biological target: Cytochrome P450 2C19 (Homo sapiens, UniProt P33261); assay: Inhibition of CYP2C19; assay type: ADME
[15] = biological target: Cytochrome P450 2D6 (Homo sapiens, UniProt P10635); assay: Inhibition of CYP2D6; assay type: ADME
[16] = biological target: Cytochrome P450 3A4 (Homo sapiens, UniProt P08684); assay: Inhibition of CYP3A4; assay type: ADME
[17] = biological target: T3, fMet-Leu-Phe receptor (Mus musculus) (UniProt P33766); assay: Inhibition of mouse FPR1
T3 sequence (whole entry): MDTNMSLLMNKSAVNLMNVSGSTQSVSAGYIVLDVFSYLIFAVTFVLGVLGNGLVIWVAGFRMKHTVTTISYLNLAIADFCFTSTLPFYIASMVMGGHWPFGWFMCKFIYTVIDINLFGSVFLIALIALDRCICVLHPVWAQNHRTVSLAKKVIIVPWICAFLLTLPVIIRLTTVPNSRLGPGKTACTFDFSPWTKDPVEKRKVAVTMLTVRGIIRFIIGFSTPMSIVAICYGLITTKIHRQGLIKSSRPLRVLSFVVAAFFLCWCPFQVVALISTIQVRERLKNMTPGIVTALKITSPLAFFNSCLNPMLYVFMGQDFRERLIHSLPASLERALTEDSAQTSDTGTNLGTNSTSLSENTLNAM

[18] = species: Cavia porcellus; assay: Inhibition of guinea pig FPR1
[19] = species: Rattus norvegicus; assay: Inhibition of rat FPR1
[20] = biological target: T4, fMet-Leu-Phe receptor (Homo sapiens) (UniProt P21462); assay: Antagonist activity at human FPR1 in human neutrophils assessed as inhibition of fMLF-stimulated intracellular calcium mobilisation at 50 uM by FLIPR assay; assay type: functional, cell-based
T4 sequence (whole entry): T1 sequence (P21462 whole entry)

Chain of Cytochrome P450 3A4 (P08684 whole entry): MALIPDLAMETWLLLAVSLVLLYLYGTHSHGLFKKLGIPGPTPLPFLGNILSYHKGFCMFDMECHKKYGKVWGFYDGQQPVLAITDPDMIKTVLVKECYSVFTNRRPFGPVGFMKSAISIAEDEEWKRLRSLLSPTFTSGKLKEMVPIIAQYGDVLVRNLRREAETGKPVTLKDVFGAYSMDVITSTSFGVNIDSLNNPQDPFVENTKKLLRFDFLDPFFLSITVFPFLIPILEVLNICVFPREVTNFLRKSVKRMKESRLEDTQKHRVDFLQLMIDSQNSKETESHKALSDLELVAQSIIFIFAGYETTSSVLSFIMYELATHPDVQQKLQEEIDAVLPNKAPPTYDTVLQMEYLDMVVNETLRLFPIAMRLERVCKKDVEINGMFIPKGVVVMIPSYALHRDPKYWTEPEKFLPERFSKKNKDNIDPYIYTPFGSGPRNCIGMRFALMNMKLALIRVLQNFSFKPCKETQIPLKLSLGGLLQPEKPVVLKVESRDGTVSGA
Chain of Cytochrome P450 2D6 (P10635 whole entry): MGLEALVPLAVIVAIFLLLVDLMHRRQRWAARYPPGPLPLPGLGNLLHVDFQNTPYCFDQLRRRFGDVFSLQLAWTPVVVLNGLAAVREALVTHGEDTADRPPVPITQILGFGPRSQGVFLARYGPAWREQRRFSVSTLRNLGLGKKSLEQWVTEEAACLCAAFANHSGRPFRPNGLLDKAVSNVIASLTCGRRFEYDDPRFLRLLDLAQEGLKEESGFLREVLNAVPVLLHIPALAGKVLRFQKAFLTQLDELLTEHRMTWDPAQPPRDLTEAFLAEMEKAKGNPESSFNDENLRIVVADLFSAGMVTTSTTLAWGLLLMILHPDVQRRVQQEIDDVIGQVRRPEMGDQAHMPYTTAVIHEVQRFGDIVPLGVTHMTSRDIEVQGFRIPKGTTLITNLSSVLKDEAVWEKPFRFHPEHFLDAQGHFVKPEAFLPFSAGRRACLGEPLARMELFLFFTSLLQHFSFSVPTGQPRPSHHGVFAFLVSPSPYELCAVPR
Chain of Cytochrome P450 2C9 (P11712 whole entry): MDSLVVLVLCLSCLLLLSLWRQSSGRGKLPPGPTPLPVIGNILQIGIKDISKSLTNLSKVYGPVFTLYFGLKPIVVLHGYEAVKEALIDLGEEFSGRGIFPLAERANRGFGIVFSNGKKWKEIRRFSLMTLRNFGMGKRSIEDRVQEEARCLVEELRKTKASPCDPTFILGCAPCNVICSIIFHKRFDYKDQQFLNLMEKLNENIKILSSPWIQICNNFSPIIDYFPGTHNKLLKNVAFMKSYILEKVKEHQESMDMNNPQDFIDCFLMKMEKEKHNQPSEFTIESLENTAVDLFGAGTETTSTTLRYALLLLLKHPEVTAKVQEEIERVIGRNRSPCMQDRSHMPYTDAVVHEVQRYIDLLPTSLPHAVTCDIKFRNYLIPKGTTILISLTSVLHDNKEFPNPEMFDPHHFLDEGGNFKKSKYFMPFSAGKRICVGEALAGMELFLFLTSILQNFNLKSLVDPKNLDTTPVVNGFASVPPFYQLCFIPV
Chain of Cytochrome P450 2C19 (P33261 whole entry): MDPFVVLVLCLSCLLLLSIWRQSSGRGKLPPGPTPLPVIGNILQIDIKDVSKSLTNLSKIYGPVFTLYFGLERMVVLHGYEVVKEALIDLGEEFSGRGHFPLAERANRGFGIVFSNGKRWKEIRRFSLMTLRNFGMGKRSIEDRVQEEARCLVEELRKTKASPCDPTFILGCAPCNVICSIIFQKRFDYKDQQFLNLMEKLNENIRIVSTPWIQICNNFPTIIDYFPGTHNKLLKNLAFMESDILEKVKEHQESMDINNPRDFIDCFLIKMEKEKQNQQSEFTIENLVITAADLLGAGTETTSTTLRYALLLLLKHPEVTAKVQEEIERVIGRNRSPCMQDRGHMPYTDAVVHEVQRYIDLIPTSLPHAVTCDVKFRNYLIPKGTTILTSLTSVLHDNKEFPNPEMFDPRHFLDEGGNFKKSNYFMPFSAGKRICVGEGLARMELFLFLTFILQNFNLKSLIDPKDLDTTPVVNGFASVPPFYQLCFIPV

IC50 [1]: 5.01 µM
Compound: CCC(CC)NC(=O)c1cnn(Cc2ccccc2)c1NS(=O)(=O)c1ccc(C)cc1

IC50 [1]: 0.316 µM
Compound: CCCC(CC)NC(=O)c1cnn(-c2ccccc2)c1NS(=O)(=O)c1ccc(C)cc1 (configuration not stated)

IC50 [1]: 5.01 µM
Compound: CCC(CC)NC(=O)c1cnn(-c2ccccc2)c1NS(=O)(=O)c1ccc(-c2cnco2)cc1

IC50 [1]: 1.58 µM
Compound: CCC(CC)NC(=O)c1ncn(-c2ccccc2)c1NS(=O)(=O)c1ccc(C)cc1

IC50 [1]: 3.98 µM
Compound: CCC(CC)NC(=O)c1nnn(-c2ccccc2)c1NS(=O)(=O)c1ccc(C)cc1

inhibition [20]: < 25%
Compound: CNC(=O)c1cnn(-c2ccccc2)c1NS(=O)(=O)c1ccc(C)cc1

IC50 [1]: 5.01 µM
Compound: CCC(CC)NC(=O)c1cnn(-c2ccccc2)c1NS(=O)(=O)c1ccccc1

IC50 [1]: 20 µM
Compound: CCC(CC)NC(=O)c1cnn(-c2ccccn2)c1NS(=O)(=O)c1ccc(C)cc1

IC50 [1]: 10 µM
Compound: CCC(CC)NC(=O)c1cn(-c2ccccc2)nc1NS(=O)(=O)c1ccc(C)cc1

IC50 [1]: 2 µM
Compound: CCC(CC)NC(=O)c1cnn(-c2ccccc2)c1NS(=O)(=O)c1ccc(C)cc1

IC50 [1]: 0.501 µM
Compound: CCC(CC)NC(=O)c1c(C)nn(-c2ccccc2)c1NS(=O)(=O)c1ccc(C)cc1

IC50 [1]: 10 µM
Compound: CCC(CC)NC(=O)c1cnn(-c2ccccc2Cl)c1NS(=O)(=O)c1ccc(C)cc1

Further lines, the compound ahead of its results:

Compound: Cc1ccc(S(=O)(=O)Nc2c(C(=O)N[C@@H](C)C(C)(C)C)c(C(F)(F)F)nn2-c2ccccc2)cc1
IC50 [1]: 0.0251 µM

Compound: Cc1ccc(S(=O)(=O)Nc2c(C(=O)NCc3ccccc3)cnn2-c2ccccc2)cc1
IC50 [1]: 10 µM

Compound: Cc1nn(-c2ccc(F)cc2)c(NS(=O)(=O)c2ccc(C#N)cc2)c1C(=O)N[C@@H](C)C(C)(C)C
IC50 [1]: 0.0251 µM
Kb [2]: 0.126 µM
logD [3]: 0.5
solubility [4]: > 1000 µM
fraction unbound [5]: 0.06
fraction unbound [6]: 0.1
microsomal CLint [7]: 5 µL/min/mg
microsomal CLint [8]: 13 µL/min/mg
hepatocyte CLint [9]: < 3 µL/min/1e6 cells
hepatocyte CLint [10]: 4 µL/min/1e6 cells
half-life [11]: > 41.7 days
IC50 [12]: > 10 µM
IC50 [13]: > 10 µM
IC50 [14]: > 10 µM
IC50 [15]: > 10 µM
IC50 [16]: > 10 µM
inhibition [17]: inactive
inhibition [18]: inactive
inhibition [19]: inactive

Compound: Cc1ccc(S(=O)(=O)Nc2c(C(=O)NC3CCN(C)CC3)cnn2-c2ccccc2)cc1
inhibition [20]: < 25%

Compound: Cc1nn(-c2ccc(F)cc2)c(NS(=O)(=O)c2ccc(C(F)(F)F)cc2)c1C(=O)N[C@@H](C)C(C)(C)C
IC50 [1]: 0.0126 µM

Compound: Cc1ccc(S(=O)(=O)Nc2c(C(=O)NC3CCCCC3C)cnn2-c2ccccc2)cc1 (mixture of isomers)
IC50 [1]: 1 µM

Compound: Cc1ccc(S(=O)(=O)Nc2c(C(=O)N(C)C3CCCCC3)c(C)nn2-c2ccccc2)cc1
IC50 [1]: 3.16 µM

Compound: CCC(CC)NC(=O)c1cnn(-c2ccccc2)c1NS(=O)(=O)c1ccccc1C
IC50 [1]: 6.31 µM

Compound: CCC(CC)NC(=O)c1cnn(-c2ccc(C#N)cc2)c1NS(=O)(=O)c1ccc(C)cc1
IC50 [1]: 15.8 µM

Compound: CCC(C)NC(=O)c1c(C)nn(-c2ccccc2)c1NS(=O)(=O)c1ccc(C)cc1 (configuration not stated)
IC50 [1]: 0.158 µM

Compound: Cc1ccc(S(=O)(=O)Nc2c(C(=O)NC3CCOCC3)cnn2-c2ccccc2)cc1
IC50 [1]: 10 µM

Compound: Cc1ccc(S(=O)(=O)Nc2c(C(=O)NCC(C)(C)C)c(C)nn2-c2ccccc2)cc1
IC50 [1]: 2 µM

Compound: Cc1ccc(S(=O)(=O)Nc2c(C(=O)NCc3ccc(C)cc3C)cnn2-c2ccccc2)cc1
IC50 [1]: 0.794 µM

Compound: CCC(CC)NC(=O)c1cnn(C)c1NS(=O)(=O)c1ccc(C)cc1
inhibition [20]: < 25%

Compound: CCC(CC)NC(=O)c1cnn(C(C)C)c1NS(=O)(=O)c1ccc(C)cc1
IC50 [1]: 10 µM

Compound: Cc1nn(-c2ccccc2)c(NS(=O)(=O)c2cccc(CN3CCOCC3)c2)c1C(=O)N[C@@H](C)C(C)(C)C
inhibition [20]: < 25%

Compound: Cc1ccc(S(=O)(=O)Nc2c(C(=O)NC(C)C(C)(C)C)c(C)nn2-c2ccccc2)cc1 (configuration not stated)
IC50 [1]: 0.126 µM

Compound: CCC(CC)NC(=O)c1cnn(-c2ccccc2)c1NS(=O)(=O)C1CCCC1
IC50 [1]: 5.01 µM

Compound: Cc1ccc(S(=O)(=O)Nc2c(C(=O)NC(C)C)c(C)nn2-c2ccccc2)cc1
IC50 [1]: 6.31 µM

Compound: Cc1ccc(S(=O)(=O)Nc2c(C(=O)NC3CCCCC3)cnn2-c2ccccc2)cc1
IC50 [1]: 3.98 µM

Compound: Cc1ccc(S(=O)(=O)Nc2c(C(=O)NC3CCOCC3)c(C)nn2-c2ccccc2)cc1
IC50 [1]: 5.01 µM

Compound: Cc1nn(-c2ccccc2)c(NS(=O)(=O)C2CCCCC2)c1C(=O)N[C@@H](C)C(C)(C)C
IC50 [1]: 1 µM

Compound: Cc1ccc(S(=O)(=O)Nc2c(C(=O)N[C@H](C)C(C)(C)C)c(C)nn2-c2ccccc2)cc1
IC50 [1]: 0.501 µM

Compound: Cc1nn(-c2ccc(F)cc2)c(NS(=O)(=O)c2cccnc2)c1C(=O)N[C@@H](C)C(C)(C)C
IC50 [1]: 1 µM

Compound: Cc1ccc(S(=O)(=O)Nc2c(C(=O)N[C@@H](C)C(C)(C)C)c(C)nn2-c2ccccc2)cc1
IC50 [1]: 0.0794 µM
Kb [2]: 0.398 µM
logD [3]: 1.4
solubility [4]: > 1000 µM
fraction unbound [5]: 0.011
fraction unbound [6]: 0.042
microsomal CLint [7]: 40 µL/min/mg
microsomal CLint [8]: 53 µL/min/mg
hepatocyte CLint [9]: 7 µL/min/1e6 cells
hepatocyte CLint [10]: 12 µL/min/1e6 cells
half-life [11]: > 41.7 days
IC50 [12]: > 10 µM
IC50 [13]: > 10 µM
IC50 [14]: > 10 µM
IC50 [15]: > 10 µM
IC50 [16]: > 10 µM
inhibition [17]: inactive
inhibition [18]: inactive
inhibition [19]: inactive

Compound: CCN(C(=O)c1cnn(-c2ccccc2)c1NS(=O)(=O)c1ccc(-c2cnco2)cc1)C1CCCCC1
IC50 [1]: 0.0794 µM

Compound: Cc1ccc(S(=O)(=O)Nc2c(C(=O)NC3CCCCC3C)c(C)nn2-c2ccccc2)cc1 (mixture of isomers)
IC50 [1]: 0.158 µM

Compound: Cc1ccc(S(=O)(=O)Nc2c(C(=O)NC3CCCCC3)c(C)nn2-c2ccccc2)cc1
IC50 [1]: 0.794 µM

Compound: Cc1ccc(S(=O)(=O)Nc2c(C(=O)N(C)C3CCCCC3)cnn2-c2ccccc2)cc1
IC50 [1]: 1.58 µM
